Laboratory results taken from ChEMBL document CHEMBL3046716, “Design of potent human steroid 5-reductase inhibitors: 3D-QSAR CoMFA, CoMSIA and docking studies” (Med Chem Res, 2013).

Assays:
[1] = species on record: Homo sapiens; assay: Ratio of compound pIC50 to (4aR,4bS,6aS,7S,9aS,9bS,11aR)-N,N-diethyl-1,4a,6a-trimethyl-2-oxohexadecahydro-1H-indeno[5,4-f]quinoline-7-carboxamide pIC50 for human steroid 5alpha-reductase
[2] = species on record: Homo sapiens; assay: Ratio of compound IC50 to (4aR,4bS,6aS,7S,9aS,9bS,11aR)-N,N-diethyl-1,4a,6a-trimethyl-2-oxohexadecahydro-1H-indeno[5,4-f]quinoline-7-carboxamide IC50 for human steroid 5alpha-reductase

Structure (SMILES)	pIC50 [1]	Ratio IC50 [2]
COC(=O)[C@H]1CC[C@H]2[C@@H]3CC[C@H]4N(C)C(=O)CC[C@]4(C)[C@H]3CC[C@]12C	6.77	17
CC(C)NC(=O)[C@H]1CC[C@H]2[C@@H]3CC[C@H]4N(C)C(=O)CC[C@]4(C)[C@H]3CC[C@]12C	7.4	4
CC(O)[C@H]1CC[C@H]2[C@@H]3CC[C@H]4N(C)C(=O)CC[C@]4(C)[C@H]3CC[C@]12C (stereo not given in full)	6.77	17
CCN(CC)C(=O)[C@H]1CC[C@H]2[C@@H]3CC[C@H]4N(C)C(=O)CC[C@]4(C)[C@H]3CC[C@]12C	8	1
CCN(CC)C(=O)[C@H]1CC[C@H]2[C@@H]3CC[C@H]4N(C)C(=O)[C@@H]5O[C@@H]5[C@]4(C)[C@H]3CC[C@]12C	6.2	63
CCN(CC)C(=O)[C@H]1CC[C@H]2[C@@H]3CC[C@H]4N(C)C(=O)[C@@H]5C[C@@H]5[C@]4(C)[C@H]3CC[C@]12C	7.89	1.3
COC(=O)[C@H]1CC[C@H]2[C@@H]3CC[C@H]4NC(=O)CC[C@]4(C)[C@H]3CC[C@]12C	6.38	42
CCN(CC)C(=O)C[C@H]1CC[C@H]2[C@@H]3CC[C@H]4N(C)C(=O)CC[C@]4(C)[C@H]3CC[C@]12C	7.7	2
CC(C)N(C(=O)[C@H]1CC[C@H]2[C@@H]3CC[C@H]4NC(=O)CC[C@]4(C)[C@H]3CC[C@]12C)C(C)C	7.82	1.5
CCOC(=O)C[C@H]1CC[C@H]2[C@@H]3CC[C@H]4N(C)C(=O)CC[C@]4(C)[C@H]3CC[C@]12C	6.54	29
CC(C)(C)CC(C)(C)NC(=O)[C@H]1CC[C@H]2[C@@H]3CC[C@H]4NC(=O)CC[C@]4(C)[C@H]3CC[C@]12C	8.25	0.56
CCN(CC)C(=O)[C@@H](C)[C@H]1CC[C@H]2[C@@H]3CC[C@H]4N(C)C(=O)CC[C@]4(C)[C@H]3CC[C@]12C	5.41	390
CN1C(=O)CC[C@]2(C)[C@H]3CC[C@]4(C)[C@@H](C#N)CC[C@H]4[C@@H]3CC[C@@H]12	6.08	83
CCN(CC)C(=O)[C@H]1CC[C@H]2[C@@H]3CC[C@H]4N(C)C(=O)[C@@H](F)C[C@]4(C)[C@H]3CC[C@]12C	7.3	5
CCCCCNC(=O)[C@H]1CC[C@H]2[C@@H]3CC[C@H]4N(C)C(=O)CC[C@]4(C)[C@H]3CC[C@]12C	7.62	2.4
COC(=O)[C@H](C)[C@H]1CC[C@H]2[C@@H]3CC[C@H]4N(C)C(=O)CC[C@]4(C)[C@H]3CC[C@]12C	5.84	143
C[C@]12CCC(=O)N[C@@H]1CC[C@@H]1[C@@H]2CC[C@]2(C)[C@@H](C(N)=O)CC[C@@H]12	5.82	150
CCN(CC)C(=O)[C@H]1CC[C@H]2[C@@H]3CC[C@H]4N(C)C(=O)[C@@H](C)C[C@]4(C)[C@H]3CC[C@]12C	7.44	3.6
CC(C)(C)OC(=O)[C@H]1CC[C@H]2[C@@H]3CC[C@H]4NC(=O)CC[C@]4(C)[C@H]3CC[C@]12C	7.07	8.6
CCN(CC)C(=O)CNC(=O)[C@H]1CC[C@H]2[C@@H]3CC[C@H]4N(C)C(=O)CC[C@]4(C)[C@H]3CC[C@]12C	6.96	11
CC(C)CC(=O)[C@H]1CC[C@H]2[C@@H]3CC[C@H]4N(C)C(=O)CC[C@]4(C)[C@H]3CC[C@]12C	7.57	2.7
C[C@H](CO)[C@H]1CC[C@H]2[C@@H]3CC[C@H]4N(C)C(=O)CC[C@]4(C)[C@H]3CC[C@]12C	6.82	15
CN1C(=O)CC[C@]2(C)[C@H]3CC[C@]4(C)[C@@H](C(=O)NC(C)(C)CO)CC[C@H]4[C@@H]3CC[C@@H]12	7.7	2
C[C@]12CCC(=O)N[C@@H]1CC[C@@H]1[C@@H]2CC[C@]2(C)[C@@H](C(=O)c3ccco3)CC[C@@H]12	7.44	3.6
CC(C)(C)NC(=O)[C@H]1CC[C@H]2[C@@H]3CC[C@H]4NC(=O)CC[C@]4(C)[C@H]3CC[C@]12C	7.77	1.7

Structure (SMILES)	pIC50 [1]	Ratio IC50 [2]
CN1C(=O)CC[C@]2(C)[C@H]3CC[C@]4(C)[C@@H](C(=O)SC(C)(C)C)CC[C@H]4[C@@H]3CC[C@@H]12	6.33	47
CN1C(=O)CC[C@]2(C)[C@H]3CC[C@]4(C)[C@@H](C(=O)NC(C)(C)C)CC[C@H]4[C@@H]3CC[C@@H]12	7.96	1.1
CCCCCCCNC(=O)[C@H]1CC[C@H]2[C@@H]3CC[C@H]4NC(=O)CC[C@]4(C)[C@H]3CC[C@]12C	7.62	2.4
CN1C(=O)CC[C@]2(C)[C@H]3CC[C@@]4(C)[C@@H](CC[C@@]45CCCO5)[C@@H]3CC[C@@H]12	5.84	144
CC(C)CC(=O)[C@H]1CC[C@H]2[C@@H]3CC[C@H]4NC(=O)CC[C@]4(C)[C@H]3CC[C@]12C	7.38	4.2
CCN(CC)C(=O)CC[C@@H](C)[C@H]1CC[C@H]2[C@@H]3CC[C@H]4N(C)C(=O)CC[C@]4(C)[C@H]3CC[C@]12C	6.57	27
CNC(=O)[C@H]1CC[C@H]2[C@@H]3CC[C@H]4N(C)C(=O)CC[C@]4(C)[C@H]3CC[C@]12C	6.55	28
CCN(CC)C(=O)[C@H]1CC[C@H]2[C@@H]3CC[C@H]4NC(=O)CC[C@]4(C)[C@H]3CC[C@]12C	7.92	1.2
CN1C(=O)CC[C@]2(C)[C@H]3CC[C@]4(C)[C@@H](C(=O)N5CCOCC5)CC[C@H]4[C@@H]3CC[C@@H]12	7.25	5.6
CCN(CCO)C(=O)[C@H]1CC[C@H]2[C@@H]3CC[C@H]4N(C)C(=O)CC[C@]4(C)[C@H]3CC[C@]12C	7.52	3
CC(C)N(C(=O)[C@H]1CC[C@H]2[C@@H]3CC[C@H]4N(C)C(=O)CC[C@]4(C)[C@H]3CC[C@]12C)C(C)C	8.09	0.82
CN1C(=O)CC[C@]2(C)[C@H]3CC[C@]4(C)[C@@H](C5=NCCO5)CC[C@H]4[C@@H]3CC[C@@H]12	6.96	11
CN1C(=O)CC[C@]2(C)[C@H]3CC[C@]4(C)[C@@H](C(=O)c5ccco5)CC[C@H]4[C@@H]3CC[C@@H]12	7.7	2
CN1C(=O)CC[C@]2(C)[C@H]3CC[C@]4(C)[C@@H](C5=NC(C)(C)CO5)CC[C@H]4[C@@H]3CC[C@@H]12	5.9	125
CCN(CC)C(=O)[C@H]1CC[C@H]2[C@@H]3CC[C@H]4N(C)C(=O)C[C@H](C)[C@]4(C)[C@H]3CC[C@]12C	7.16	7
C[C@]12CCC(=O)N[C@@H]1CC[C@@H]1[C@@H]2CC[C@@]2(C)[C@H]1CC[C@@]21CCCO1	5.13	735
CCC(C)C(=O)[C@H]1CC[C@H]2[C@@H]3CC[C@H]4NC(=O)CC[C@]4(C)[C@H]3CC[C@]12C (stereo not given in full)	7.4	4
CCNC(=O)[C@H]1CC[C@H]2[C@@H]3CC[C@H]4N(C)C(=O)CC[C@]4(C)[C@H]3CC[C@]12C	7.03	9.4
CCN(CC)C(=O)[C@H]1CC[C@H]2[C@@H]3CC[C@H]4N(C)C(=O)C(OC)(OC)C[C@]4(C)[C@H]3CC[C@]12C	6.55	28
CC(=O)[C@H]1CC[C@H]2[C@@H]3CC[C@H]4N(C)C(=O)CC[C@]4(C)[C@H]3CC[C@]12C	6.57	27
CCN(CC)C(=O)[C@H]1CC[C@H]2[C@@H]3CC[C@H]4N(C)C(=O)[C@@H](OC)C[C@]4(C)[C@H]3CC[C@]12C	6.82	15
COC(CNC(=O)[C@H]1CC[C@H]2[C@@H]3CC[C@H]4NC(=O)CC[C@]4(C)[C@H]3CC[C@]12C)OC	6.7	20
CCCCCCCNC(=O)[C@H]1CC[C@H]2[C@@H]3CC[C@H]4N(C)C(=O)CC[C@]4(C)[C@H]3CC[C@]12C	7.4	4
CCN(CC)C(=O)/C=C1/CC[C@H]2[C@@H]3CC[C@H]4N(C)C(=O)CC[C@]4(C)[C@H]3CC[C@]12C	7.82	1.5
CN1C(=O)CC[C@]2(C)[C@H]3CC[C@]4(C)[C@@H](C(=O)NC(C)(C)CC(C)(C)C)CC[C@H]4[C@@H]3CC[C@@H]12	8.28	0.52
